In patent US6520981B1, “Significance of dosimetry in photodynamic therapy of injured arteries” (The General Hospital Corporation, priority 1999, dated 2003):
“And” between values parts separate entries of the source, which are not always exact repeats. Identical values can stand only once. “Also recorded” adds a separate entry of the source. Like-named read-outs stand apart in the source and are kept apart here. Marks after values point to notes of the source that are not given here.

Assays:
versican mRNA = assay: Digoxigenin in situ hybridization, versican; type: in vivo, rat; details: group PDT: MB 250 μg/ml, 660 nm, 100 J/cm^2; 2 weeks
Excerpt: (§1) Digoxigenin in situ hybridization: Groups for in situ hybridization included PDT, BI, and the uninjured contralateral artery (n=3). […] Complementary DNAs (cDNAs) for type I procollagen and versican core protein were obtained as PCR fragments with each gene specific primers in which reverse primers contain T7 RNA polymerase recognition sequence at their 5′ end. Primer sequences were as follows. […] Digoxigenin-labeled antisense RNA probes were synthesized using a RNA labeling kit (Boehringer, Mannheim, Germany) according to the manufacturers' instruction and the in situ hybridization protocol used with modifications as previously described. Arterial sections were deparafinized in xylene and rehydrated through graded ethanol solutions, washed, and treated with 5 μg/ml proteinase K (Boehringer) for 30 min at 37° C. […] The hybridized probes were detected using an alkaline phosphatase conjugated anti-digoxigenin monoclonal antibody (Boehringer), and the colored product was visualized using Nitro Blue tetrazolium (Boehringer) and 5-bromo-4-chlor-indonyl-phosphate (Boehringer) as substrates. […] For statistical analysis, the median data point of every specimen was assessed and used to compare control versus PDT procollagen type I and veriscan gene expression.
(§2) Statistical Evaluation: All values are expressed as a mean ± SD.

[1] = tested on: balloon-injured rat common carotid artery (intimal hyperplasia); assay: PDT with locally delivered methylene blue in balloon-injured rat carotid artery: light microscopy and histomorphometry; type: in vivo; details: 2 weeks
Description: Control animals included BI along and MB after BI alone. Arteries were analyzed after 2 weeks with morphometric evaluation (per group: n=6), and in situ hybridization for versican and pro-collagen type 1 gene expression (digitized image pixel analyses, n=9).
Common carotid artery balloon injury was performed using a 2-French Fogarty embolectomy catheter (Baxter Health Care Corporation, Edwards Division, Irvine, Calif.). […] In brief, the balloon was introduced into the common carotid artery and inflated with 0.65 mL of air. […] The catheter was connected via a three-way stopcock to a Stratham transducer for synchronous pressure monitoring (HP 78205C, Hewlett Packard, Mass.). […] Under low ambient light, the drug was injected into the common carotid artery with 180 mm HG for 2 minutes. […] The external carotid artery was ligated, and the blood flow was restored.
The animals were randomly assigned to the following 3 groups: Group PDT (n=6): balloon injury followed by application of photosensitizer and laser irradiation; Group PS (n=6): balloon injury followed by the photosensitizer MB application alone; Group BI (n=6): no treatment other than balloon-injury (BI) to the carotid artery.
Photodynamic Therapy: Five minutes after local delivery of MB, the common carotid artery was externally irradiated with 660 nm laser light, emitted by a diode laser (Alto-Surgeon SRG-3, Polaroid, Cambridge, Mass.) to deliver a total fluence of 100 J/cm^2 at an irradiance of 100 mW/cm^2. The diode laser was coupled to a 600-μm optical fiber through a microlens to obtain a uniform 1-cm spot. The targeted artery was submerged in 0.9% saline and placed on a right-angled reflective mirror to achieve uniform irradiation, as previously described. The irradiated vessel segment was marked with periadventitial India ink.
Harvest: Animals were sacrificed 14 days after surgery by an overdose of pentobarbital. Following sacrifice, the iliac artery was cannulated and the arterial system was flushed with saline and in situ perfusion-fixed at 150 mm Hg with 10% buffered formalin. The balloon-injured vessel segments and the contralateral carotid artery were excised and placed in fresh 10% buffered formalin. After embedding in paraffin, multiple 4 μm thick cross sections were obtained from the proximal, mid, and distal vessel segments.
Vessel Histomorphometry: The histologic analyses of the arteries stained with hematoxylin and eosin consisted of both a descriptive and quantitative morphometric evaluation. The morphometry of the arteries was measured using a digitizing measurement system (Color CCB Camera Model 2222-1010, COHU Inc., San Diego, Calif.) and analyzed using the Scion Image software (Scion Corporation, Frederick, MY). Intimal area, medial area, and vessel diameter, as delineated by the external elastic lamina, were measured and calculated as previously described. In addition, adventitial cells were counted manually and are expressed as the number of cells per high power microscopic field (×400). Because the area of the adventitia varies within the different specimens, high power fields were used for all quantitative measurements of adventitial cell numbers and gene expression in the in situ hybridization experiments.

procollagen type I mRNA = assay: Digoxigenin in situ hybridization, procollagen type I; type: in vivo, rat; details: group PDT: MB 250 μg/ml, 660 nm, 100 J/cm^2; 2 weeks
Excerpt: as §1, §2

[2] = tested on: basic fibroblast growth factor (bFGF); assay: Immunohistochemistry for bFGF in arteries after BPD-PDT; type: in vivo, rat; details: 100 J/cm^2
Excerpt: Harvest. […] The carotid artery was flushed with saline.
Immunohistochemistry. Immunohistochemistry for basic fibroblast growth factor (bFGF) was undertaken to verify possible differential, dose-dependent effects on this growth factor which resides in the vascular wall and is known to play an important role in the early development of IH in rats. Monoclonal antibody to bFGF (Zymogenetics, Seattle, Wash.) was used to verify the presence of bFGF in the specimens using the two-layer indirect immunoperoxidase technique previously described. Briefly, the primary antibody (1:1000) was labeled by biotinylated horse anti-mouse immunoglobulin (Vector Laboratories, Burlingame, Calif.) and counterstained with nuclear fast red (Sigma Chemical Co., St. Louis, Mo.). Normal arteries were used as positive control, and arteries stained with a nonspecific primary antibody were used as negative controls to exclude nonspecific binding by the primary or secondary antibody.

[3] = tested on: balloon-injured rat common carotid artery (intimal hyperplasia); details: for Intimal Area: 690 nm
Description: Male Sprague Dawley rats (Charles River Breeding Laboratories, Wilmington, Mass.), weighing 350-450 g, were anesthetized with intramuscular Ketamine (75 mg/kg), Xylazine (5 mg/kg), and Atropine (40 μg/kg). A midline neck incision was performed and the left carotid artery was exposed. After clamping the common carotid and the internal carotid artery, a 2 F (French Fogarty embolectomy catheter (Baxter Health Care Corporation, LIS Division, Irvine, Calif.) was introduced into the common carotid artery via the external carotid artery. The common carotid artery was subsequently injured by inflating the balloon with 0.2 ml air and gently passing and rotating the catheter three times.
After balloon-injury, a 22 gauge polyethylene catheter was advanced through the external carotid arteriotomy into the distal portion of the common carotid artery and secured with a suture. The catheter was connected via three-way stopcock to a Statham transducer for synchronous pressure monitoring with a digital pressure manometer (HP 78205C, Hewlett Packard, Palo Alto, Calif.). The second generation photosensitizer benzoporphyrin-derivative monoacidic ring (BPD-MA Verteporfine®, Quadra Logic Technologies Inc., Vancouver, BC, Canada), provided as a liposomal preparation, was reconstituted in distilled water (2 mg/ml) and diluted in physiologic saline to a final concentration of 25 μg/ml. Once the arterial segment was isolated with microclamps under low ambient light, BPD was delivered at a pressure of 400 mm Hg for two minutes. […] Following aspiration of BPD from the arterial lumen, the artery was flushed with saline, the catheter was removed, and blood flow was restored to the internal carotid artery.
Photodynamic Therapy. Fifteen minutes following delivery of the PS to the artery wall, the common carotid artery was externally irradiated as previously described. Briefly, an argon-pumped dye laser (Coherent Innova I 100 and Coherent CR 599, Coherent, Palo Alto, Calif.) was tuned to 690 nm light at an irradiance of 100 mW/cm^2, coupled to a 600 μm optical fiber, and using a 5-mm focal length lens magnified to obtain a uniform 2-cm spot. The targeted artery was submerged in physiologic saline, placed on a right-angled reflective mirror, and optically isolated with black, light-impervious tape.
Experimental groups. The arteries were assigned to four different experimental groups: group 1 (n=6) and 2 (n=6) consisted of arteries which were pressurized with 0.5 μg/ml BPD and irradiated at a fluence of 50 and 100 J/cm^2 respectively. Group 3 (n=15) and 4 (n=4) were pressurized with 25 μg/ml BPD and irradiated at 100 or 200 J/cm^2 respectively.
Harvest. The animals were sacrificed 24 hours and 2 weeks after PDT. The carotid artery was flushed with saline. They were either in situ perfusion-fixed at 80 mm Hg with 10% buffered formalin for light microscopy or rinsed with saline, embedded in Tissue tek O.C.T. compound® (Miles Inc. Elkhart, IN) and stored at −70° C. for immunohistochemistry.
Histology. For each animal, the harvested artery was processed into three segments: proximal, mid, and distal. Multiple five-μm thick cross-sections were prepared from each specimen of the artery, and a representative from each segment was analyzed. All paraffin-embedded specimens were stained with hematoxylin and eosin. Arterial diameters, as delineated by the length of the internal elastic lamina (IEL circumference=πd), as well as intimal—and medial areas were measured using morphometric analysis with a camera lucida digitizing measurement system as previously described (Sigma Scan, Jandel Scientific, San Rafael, Calif.).

[4] = 15 minutes following delivery of BPD at 400 mm Hg for two minutes; previous studies; cited from earlier work
[5] = Observation of BPD-treated animals at harvest; type: in vivo, rat; details: rats after local delivery of BPD
intimal hyperplasia = details: for as long as 6 months after PDT; cited from earlier work
[6] = group PDT: MB 250 μg/ml, 660 nm, 100 J/cm^2
[7] = group PS: MB alone without irradiation
[8] = group 1: 0.5 μg/ml BPD, 50 J/cm^2, 2 weeks
[9] = group 2: 0.5 μg/ml BPD, 100 J/cm^2, 2 weeks
[10] = group 3: 25 μg/ml BPD, 100 J/cm^2, 2 weeks
[11] = group 4: 25 μg/ml BPD, 200 J/cm^2

## CN(C)c1ccc2nc3ccc(=[N+](C)C)cc-3sc2c1 [MB, methylene blue]
Versican mRNA
  Versican mRNA in adventitia, % of positive pixels per high power field: 1.13%±0.39% and 1.11±0.37%
[1]; [6]
  Diameter: 0.95±0.04 mm
  Histology of arteries: without evidence of microthrombi, inflammation, or intimal thickening; also recorded: no IH was seen
  Medial Area: 0.063±0.004 mm^2
[1]; group PDT: MB 250 μg/ml, 660 nm, 100 J/cm^2, ×400
  Number of adventitial cells per high power field: 39±9.4
[1]; group PDT: balloon injury, MB 250 μg/ml locally, 660 nm, 100 J/cm^2
  IH area: 0±0 mm^2
[1]; [7]
  Histology of arteries: no MB-induced modulation of the vascular injury healing response; also recorded: IH formation was demonstrated
  Medial Area: 0.085±0.005 mm^2
[1]; group PS: balloon injury, MB alone without irradiation
  IH area: 0.183±0.05 mm^2
Procollagen type I mRNA
  Pro-collagen type I mRNA in adventitia, % of positive pixels per high power field: 4.13%±1.25%
MB study, at harvest (14 days)
  Artery thrombosis: No artery thrombosis
rat, in vivo
  Signs of toxicity: no signs of toxicity

## benzoporphyrin-derivative monoacid ring [BPD]
[2]; group 2 / stage II: 0.5 μg/ml BPD, 24 hours after PDT
  bFGF staining of the vascular wall: evidence of bFGF in all layers of the vascular wall; also recorded: bFGF could still be detected in all layers of the vascular wall; also recorded: positive staining for bFGF in all layers of the vascular wall; also recorded: avid brown staining in all layers of the vascular wall
[2]; group 3 / stage III: 25 μg/ml BPD, two weeks after PDT
  bFGF staining of the vascular wall: evidence for bFGF in the flat cells, presumably endothelial cells, at the luminal surface; also recorded: positive bFGF staining only of endothelial cells in the intima and fibroblasts in the adventitia
[3]; group 1 / stage I: 0.5 μg/ml BPD, 50 J/cm^2, 2 weeks
  Intimal hyperplasia, histology: significant IH
[3]; [8]
  Diameter: 0.93 ± 0.02 mm
  Medial Area: 0.18 ± 0.01 mm^2
  Intimal Area: 0.18±0.03 mm^2
[3]; [9]
  Diameter: 0.95 ± 0.06 mm
  Medial Area: 0.18 ± 0.05 mm^2
  Intimal Area: 0.14±0.03 mm^2
[3]; [10]
  Diameter: 0.82 ± 0.04 mm
  Medial Area: 0.10 ± 0.02† mm^2
  Intimal Area: 0.01 ± 0.01*‡ mm^2
[3]; [11]
  Diameter: 0.91 ± 0.03 mm
  Medial Area: 0.17 ± 0.01 mm^2
[4]
  Photosensitizer fluorescence in the arterial wall: detected through the entire arterial wall
[5]
  Signs of systemic phototoxicity: no signs of systemic phototoxicity

## chloraluminum sulfonated phthalocyanin
Intimal hyperplasia
  Inhibition of IH after PDT: inhibition of IH without arterial degeneration
